This note sets out measurements from patent publication US9469615B2, “Quinoxalines and AZA-quinoxalines as CRTH2 receptor modulators” (Merck Sharp & Dohme Corp., priority 2010, dated 2016).

The test addresses T1, hCRTH2 (Homo sapiens, UniProt Q9Y5Y4).
T1 construct: expressed in transfected cells; host or cells: HEK (human embryonic kidney) cells expressing hCRTH2; membrane preparation
T1 sequence (Q9Y5Y4 1-395): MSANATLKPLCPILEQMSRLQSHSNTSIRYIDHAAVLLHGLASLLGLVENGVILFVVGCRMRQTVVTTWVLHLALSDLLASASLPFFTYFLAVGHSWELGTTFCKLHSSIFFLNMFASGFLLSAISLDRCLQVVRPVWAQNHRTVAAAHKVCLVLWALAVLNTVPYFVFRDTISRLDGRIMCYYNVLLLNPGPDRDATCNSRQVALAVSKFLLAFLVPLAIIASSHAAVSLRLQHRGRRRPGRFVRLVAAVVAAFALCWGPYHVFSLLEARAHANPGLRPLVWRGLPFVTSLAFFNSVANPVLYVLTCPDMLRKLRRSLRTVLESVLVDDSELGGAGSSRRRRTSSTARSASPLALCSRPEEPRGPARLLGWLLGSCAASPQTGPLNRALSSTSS
In words: Radioligand binding assay ([3H]PGD2 competition, HEK-hCRTH2 membranes). The procedure, abridged:
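HEK-hCRTH2 membranes, 8-20 μg; [3H]PGD2 3.0 nM; 50 mM Tris-HCl pH 7.4/1 mM EDTA/2 mM MnCl2; DMSO 1%; 60 min RT; NSB 10 μM PGD2; filtration, scintillation counting.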

The mark [1] stands for this setting: [3H]PGD2 binding, rated A-E (Table A).
Setting [2] is: [3H]PGD2 binding, values in text.

Take `O=C(O)CCCCc1nc2cc(C(=O)N[C@H]3CCOc4cc(Cl)ccc43)ccc2nc1-c1ccc(Cl)cc1` [compound 335, (S)-5-(7-((7-chlorochroman-4-yl)carbamoyl)-3-(4-chlorophenyl)quinoxalin-2-yl)pentanoic acid]: where the note is “[3H]PGD2 competition, Table B”, the inhibitory constant (Ki) is 2.1 to 20 nM. On to `O=C(O)CCCCc1nc2cc(C(=O)N3CCC4(CC3)COc3ccccc34)ccc2nc1-c1ccccc1` [compound 120, 3-phenyl-7-(spiro[benzofuran-3(2H),4′-piperidin]-1′-ylcarbonyl)-2-quinoxalinepentanoic acid], for which the inhibition constant Ki under setting [1] was 2.1 to 20 nM. The compound `O=C(O)CCCCc1nc2cc(C(=O)N[C@H]3c4ccccc4C[C@@H]3O)ccc2nc1-c1ccc(F)cc1` [compound 511, 5-(3-(4-fluorophenyl)-7-(((1S,2S)-2-hydroxy-2,3-dihydro-1H-inden-1-yl)carbamoyl)quinoxalin-2-yl)pentanoic acid] returned an inhibition constant (Ki) ([3H]PGD2 competition, Table B) of 2.1 to 20 nM. The same measure, in the same setting: to `CC(CCCc1nc2cc(C(=O)N[C@H](C)c3ccc(F)cc3)ccc2nc1-c1ccc(Cl)cc1)C(=O)O` (stereo partly drawn) [compound 408, 5-(3-(4-chlorophenyl)-7-(((R)-1-(4-fluorophenyl)ethyl)carbamoyl)quinoxalin-2-yl)-2-methylpentanoic acid] belongs 0.1 to 2 nM; to `C[C@H](CCc1nc2cc(C(=O)N[C@H](C)c3ccc(F)cc3)ccc2nc1-c1ccc(Cl)cc1)CC(=O)O` [compound 441, (R)-5-(3-(4-chlorophenyl)-7-(((R)-1-(4-fluorophenyl)ethyl)carbamoyl)quinoxalin-2-yl)-3-methylpentanoic acid], 2.1 to 20 nM. The same measure, in the same setting: then `C[C@@H](NC(=O)c1ccc2nc(-c3ccc(Cl)cc3Cl)c(CCCCC(=O)O)nc2c1)c1ccc(F)cc1` [compound 416, (R)-5-(3-(2,4-dichlorophenyl)-7-((1-(4-fluorophenyl)ethyl)carbamoyl)quinoxalin-2-yl)pentanoic acid], with 2.1 to 20 nM.

As to `CC(CCCc1nc2cc(C(=O)N3CCC(c4ccccc4)CC3)ccc2nc1-c1ccc(C(F)(F)F)cc1)C(=O)O` (stereo not drawn) [compound 18, alpha-methyl-7-[(4-phenyl-1-piperidinyl)carbonyl]-3-[4-(trifluoromethyl)phenyl]-2-quinoxalinepentanoic acid], the Ki under setting [1] lay within 2.1 to 20 nM. With `Cc1cnccc1N1CCN(C(=O)c2ccc3nc(-c4ccc(F)cc4)c(CCCCC(=O)O)nc3c2)CC1` [compound 368, 5-(3-(4-fluorophenyl)-7-(4-(3-methylpyridin-4-yl)piperazine-1-carbonyl)quinoxalin-2-yl)pentanoic acid], the inhibition constant Ki is 21.4 nM under setting [2] and 20.1 to 200 nM ([3H]PGD2 competition, Table B).

In the case of `CCc1ccc(CNC(=O)c2ccc3nc(-c4ccccc4)c(CCCCC(=O)O)nc3c2)cc1` [15AZ, 5-{7-[(4-ethylbenzyl)carbamoyl]-3-phenylquinoxalin-2-yl}pentanoic acid], under setting [1], the inhibition constant Ki is 2.1 to 20 nM. Still for that read-out and setting: to `CC(CCCc1nc2cc(C(=O)N3CCC(c4ccccc4)CC3)ccc2nc1-c1ccc(F)cc1)C(=O)O` (stereo not drawn) [compound 205, 3-(4-fluorophenyl)-alpha-methyl-7-[(4-phenyl-1-piperidinyl)carbonyl]-2-quinoxalinepentanoic acid] belongs 2.1 to 20 nM. Turning to `O=C(c1ccc2nc(-c3ccc(F)cc3)c(CCCC(F)(F)C(=O)O)nc2c1)N1CCN(c2ccccc2)CC1` [compound 530], the inhibition constant (Ki) ([3H]PGD2 competition, Table B) was in the range of 20.1 to 200 nM.

`C[C@H](NC(=O)c1ccc2nc(-c3ccc(C(F)(F)F)cc3)c(CCCCC(=O)O)nc2c1)c1ccccc1` [3W, 7-[[(1-(S)-phenylethyl)amino]carbonyl]-3-[4-(trifluoromethyl)phenyl]-2-quinoxalinepentanoic acid] yielded a Ki under setting [1] of 2.1 to 20 nM. In the case of `O=C(O)CCCCc1nc2cc(C(=O)N3CCC(N4Cc5ccccc5C4=O)CC3)ccc2nc1-c1ccc(Cl)cc1` [compound 316, 5-(3-(4-chlorophenyl)-7-(4-(1-oxoisoindolin-2-yl)piperidine-1-carbonyl)quinoxalin-2-yl)pentanoic acid], the Ki ([3H]PGD2 competition, Table B) lay in the range of 2.1 to 20 nM. `O=C(O)CCCCc1nc2cc(C(=O)NC3CCCOc4ccccc43)ccc2nc1-c1ccc(Cl)cc1` (stereo not drawn) [compound 579, 5-(3-(4-chlorophenyl)-7-((2,3,4,5-tetralaydrobenzo[b]oxepin-5-yl)carbamoyl)quinoxalin-2-yl)pentanoic acid]: the Ki ([3H]PGD2 competition, Table B) lay within 2.1 to 20 nM. On the same count and under the same terms, to `CN(Cc1ccc(F)cc1)C(=O)c1ccc2nc(-c3ccc(Cl)cc3)c(CCCc3cccc(CC(=O)O)c3)nc2c1` [compound 544, 2-(3-(3-(3-(4-chlorophenyl)-7-((4-fluorobenzyl) (methyl)carbamoyl)quinoxalin-2-yl)propyl)phenyl)acetic acid] belongs 20.1 to 200 nM. `O=C(O)CCCCc1nc2cc(C(=O)N3CC(c4nc5ccccc5[nH]4)C3)ccc2nc1-c1ccccc1` [compound 247, 7-[[3-(1H-benzimidazol-2-yl)-1-azetidinyl]carbonyl]-3-phenyl-2-quinoxalinepentanoic acid] came in with an inhibition constant (Ki) under setting [1] of 2.1 to 20 nM.

Regarding `O=C(O)CCCCc1nc2cc(C(=O)N3CCC(c4ccccc4)CC3)ccc2nc1-c1ccccc1` [15Ai, 5-{3-phenyl-7-[(4-phenylpiperidin-1-yl)carbonyl]quinoxalin-2-yl}pentanoic acid], the Ki is 0.1 to 2 nM under setting [1] and 1.9 nM under setting [2]. `O=C(O)CCCCc1nc2cc(C(=O)NCc3ccccc3)ccc2nc1-c1ccc(Cl)cc1` [16G, 3-(4-chlorophenyl)-7-[[(phenylmethyl)amino]car-bonyl]-2-quinoxalinepentanoic acid] gave a Ki under setting [1] of 0.1 to 2 nM. In the case of `CN1C(=O)CC(NC(=O)c2ccc3nc(-c4ccc(Cl)cc4)c(CCCCC(=O)O)nc3c2)c2ccccc21` (stereo not drawn) [compound 315, 5-(3-(4-chlorophenyl)-7-((1-methyl-2-oxo-1,2,3,4-tetrahydroquinolin-4-yl)carbamoyl)quinoxalin-2-yl)pentanoic acid], the inhibition constant (Ki) ([3H]PGD2 competition, Table B) lay in the range of 2.1 to 20 nM. `O=C(O)CCCCc1nc2cc(S(=O)(=O)N3CCC(c4ccccc4)CC3)ccc2nc1-c1ccc(Cl)cc1` [compound 25, 5-(3-(4-chlorophenyl)-7-(4-phenylpiperidin-1-ylsulfonyl)quinoxalin-2-yl)pentanoic acid] registered a Ki under setting [1] of 201 to 700 nM.

Compound `C[C@H](NC(=O)c1ccc2nc(-c3ccccc3)c(CCCCC(=O)O)nc2c1)c1cccc2ncccc12` [compound 640, (S)-5-(3-phenyl-7-((1-(quinolin-5-yl)ethyl)carbamoyl)quinoxalin-2-yl)pentanoic acid] returned an inhibition constant (Ki) ([3H]PGD2 competition, Table B) of 2.1 to 20 nM. Consider `O=C(O)Cc1cc(F)cc(CCc2nc3cc(C(=O)N4CCN(c5ccccc5)CC4)ccc3nc2-c2ccc(Cl)cc2)c1` [compound 445], for which, for the setting “[3H]PGD2 competition, Table B”, the inhibition constant Ki was 2.1 to 20 nM. Turning to `C[C@H](NC(=O)c1ccc2nc(-c3ccc(Cl)cc3)c(CCc3cccc(CC(=O)O)c3)nc2c1)c1ccc(F)cc1` [19H, 3-[2-[3-(4-chlorophenyl)-7-[[[1(S)-(4-fluorophenyl)ethyl]amino]carbonyl]-2-quinoxalinyl]ethyl] benzeneacetic acid], the Ki under setting [1] lay in the range of 2.1 to 20 nM. As for `O=C(N[C@H](c1ccccc1)C(F)(F)F)c1ccc2nc(-c3ccc(Cl)cc3)c(CC3CCC(C(=O)O)C3)nc2c1` (stereo partly drawn) [compound 395, 3-((3-(4-chlorophenyl)-7-(((R)-2,2,2-trifluoro-1-phenylethyl)carbamoyl)quinoxalin-2-yl)methyl)cyclopentane-carboxylic acid], the inhibition constant Ki ([3H]PGD2 competition, Table B) was in the range of 2.1 to 20 nM.

In turn, `O=C(O)CCCCc1nc2cc(C(=O)N3CCOC[C@H]3c3ccccc3)ccc2nc1-c1ccc(Cl)cc1` [compound 661, (R)-5-(3-(4-chlorophenyl)-7-(3-phenylmorphohne-4-carbonyl)quinoxalin-2-yl)pentanoic acid] registered a Ki ([3H]PGD2 competition, Table B) of 2.1 to 20 nM.

What is called Ki is a dissociation constant, usually derived from enzyme kinetics or from competition with a known ligand.
